Data from patent US8735361B2, “C1ORF59 peptides and vaccines including the same” (Oncotherapy Science, Inc., priority 2008, dated 2014).

Key:
[1] = system: peptide-pulsed A24 LCL; assay: IFN-gamma ELISA assay of CTL clones established by limiting dilution (HLA-A*2402); format: cell-based, human; settings: CTL clones against target cells pulsed with peptide
Protocol: The dilutions were made to have 0.3, 1, and 3 CTLs/well in 96 round-bottomed micro titer plate (Nalge Nunc International). CTLs were cultured with 1×10^4 cells/well of 2 kinds of human B-lymphoblastoid cell lines, 30 ng/ml of anti-CD3 antibody, and 125 U/ml of IL-2 in a total of 150 microlitter/well of AIM-V Medium containing 5% AS. 50 microlitter/well of IL-2 were added to the medium 10 days later so to reach a final concentration of 125 U/ml IL-2. CTL activity was tested on the 14th day, and CTL clones were expanded using the same method as described above (Uchida N et al., Clin Cancer Res 2004 Dec. 15, 10(24): 8577-86; Suda T et al., Cancer Sci 2006 May, 97(5): 411-9; Watanabe T et al., Cancer Sci 2005 August, 96(8): 498-506).
(§1) To examine specific CTL activity, interferon (IFN)-gamma enzyme-linked immunospot (ELISPOT) assay and IFN-gamma enzyme-linked immunosorbent assay (ELISA) were performed. Specifically, peptide-pulsed A24 LCL (1×10^4/well) was prepared as stimulator cells. Cultured cells in 48 wells were used as responder cells. IFN-gamma ELISPOT assay and IFN-gamma ELISA assay were performed under manufacture procedure.

[2] = system: peptide-pulsed A24 LCL; assay: IFN-gamma ELISA assay of expanded CTL lines (HLA-A*2402); format: cell-based, human; settings: target cells pulsed with corresponding peptide compared to target cells without peptide pulse
Protocol: CTLs were expanded in culture using the method similar to the one described by Riddell et al. (Walter E A et al., N Engl J Med 1995 Oct. 19, 333(16): 1038-44; Riddell S R et al., Nat Med 1996 February, 2(2): 216-23). A total of 5×10^4 CTLs were suspended in 25 ml of AIM-V/5% AS medium with 2 kinds of human B-lymphoblastoid cell lines, inactivated by MMC, in the presence of 40 ng/ml of anti-CD3 monoclonal antibody (Pharmingen). One day after initiating the cultures, 120 IU/ml of IL-2 were added to the cultures. The cultures were fed with fresh AIM-V/5% AS medium containing 30 IU/ml of IL-2 on days 5, 8 and 11 (Tanaka H et al., Br J Cancer 2001 Jan. 5, 84(1): 94-9; Umano Y et al., Br J Cancer 2001 Apr. 20, 84(8): 1052-7; Uchida N et al., Clin Cancer Res 2004 Dec. 15, 10(24): 8577-86; Suda T et al., Cancer Sci 2006 May, 97(5): 411-9; Watanabe T et al., Cancer Sci 2005 August, 96(8): 498-506).
as §1

[3] = system: peptide-pulsed A24 LCL; assay: In vitro CTL induction with HLA-A*2402 restricted peptides, IFN-gamma ELISPOT assay; format: cell-based, human; settings: CTLs from HLA-A*2402 positive donor stimulated with peptide-pulsed DCs; compared to control wells
Description: Monocyte-derived dendritic cells (DCs) were used as antigen-presenting cells (APCs) to induce cytotoxic T lymphocyte (CTL) responses against peptides presented on human leukocyte antigen (HLA). DCs were generated in vitro as described elsewhere (Nakahara S et al., Cancer Res 2003 Jul. 15, 63(14): 4112-8). Specifically, peripheral blood mononuclear cells (PBMCs) isolated from a normal volunteer (HLA-A*2402 positive) by Ficoll-Plaque (Pharmacia) solution were separated by adherence to a plastic tissue culture dish (Becton Dickinson) so as to enrich them as the monocyte fraction. The monocyte-enriched population was cultured in the presence of 1000 U/ml of granulocyte-macrophage colony-stimulating factor (GM-CSF) (R&D System) and 1000 U/ml of interleukin (IL)-4 (R&D System) in AIM-V Medium (Invitrogen) containing 2% heat-inactivated autologous serum (AS). After 7 days of culture, the cytokine-induced DCs were pulsed with 20 micro gram/ml of each of the synthesized peptides in the presence of 3 micro gram/ml of beta 2-microglobulin for 3 hrs at 37 degrees C. in AIM-V Medium. The generated cells appeared to express DC-associated molecules, such as CD80, CD83, CD86 and HLA class II, on their cell surfaces (data not shown). These peptide-pulsed DCs were then inactivated by X-irradiated (20 Gy) and mixed at a 1:20 ratio with autologous CD8+ T cells, obtained by positive selection with CD8 Positive Isolation Kit (Dynal). These cultures were set up in 48-well plates (Corning); each well contained 1.5×10^4 peptide-pulsed DCs, 3×10^5 CD8+ T cells and 10 ng/ml of IL-7 (R&D System) in 0.5 ml of AIM-V/2% AS medium. Three days later, these cultures were supplemented with IL-2 (CHIRON) to a final concentration of 20 IU/ml. On day 7 and 14, the T cells were further stimulated with the autologous peptide-pulsed DCs. The DCs were prepared each time by the same way described above. CTL was tested against peptide-pulsed A24 LCL or T2 cells after the 3rd round of peptide stimulation on day 21 (Tanaka H et al., Br J Cancer 2001 Jan. 5, 84(1): 94-9; Umano Y et al., Br J Cancer 2001 Apr. 20, 84(8): 1052-7; Uchida N et al., Clin Cancer Res 2004 Dec. 15, 10(24): 8577-86; Suda T et al., Cancer Sci 2006 May, 97(5): 411-9; Watanabe T et al., Cancer Sci 2005 August, 96(8): 498-506)
as §1

[4] = system: COS7 cells transfected with C1orf59 and HLA-A*2402; assay: Specific CTL activity against target cells exogenously expressing C1orf59 and HLA-A*2402; format: cell-based, African green monkey
Description: The cDNA encoding an open reading frame of target genes or HLA-A24 was amplified by PCR. The PCR-amplified product was cloned into pCAGGS vector. The plasmids were transfected into COS7, which is the target genes and HLA-A24-null cell line, using lipofectamine 2000 (Invitrogen) according to the manufacturer's recommended procedures. After 2 days from transfection, the transfected cells were harvested with versene (Invitrogen) and used as the target cells (5×10^4 cells/well) for CTL activity assay.
The established CTL lines raised against these peptides were examined for their ability to recognize target cells that express C1orf59 and HLA-A*2402 molecule. Specific CTL activity against COS7 cells which transfected with both the full length of C1orf59 and HLA-A*2402 molecule gene (a specific model for the target cells that express C1orf59 and HLA-A*2402 gene) was tested using the CTL lines raised by corresponding peptide as the effecter cells. COS7 cells transfected with either full length of C1orf59 genes or HLA-A*2402 were prepared as control.

For GYCTQIGIF [SEQ ID NO: 26], which “IFN-gamma production of CTL clones by ELISA” value [1] is on record?
Its value is “Potent IFN-gamma productions”.

And the “IFN-gamma production of CTL lines by ELISA” value [2]?
The value was “potent IFN-gamma production”.

And the “Peptide specific CTL activity, IFN-gamma production by ELISPOT” value [3]?
Its value is “potent IFN-gamma production”.

What about the “Specific CTL activity against control COS7 cells” value ([4]; COS7 transfected with either full length C1orf59 or HLA-A*2402 alone) of the same sequence?
Its value is “no significant specific CTL activity”.

And the “Specific CTL activity against COS7 cells expressing both C1orf59 and HLA-A*2402” value ([4]; CTLs raised by the peptide as effector cells)?
Its value is “potent CTL activity”.
